From patent US20230331803A1, “CO-AGONISTS OF THE GLP-1 AND AMYLIN RECEPTORS” (priority 2020, published 2023)
“Also recorded” adds a separate entry of the source. Where two headings read alike, the source gives them in different places. Starred links: 1 amine or outer side, 2 acyl side, 3 side chain; linkers in the order of their positions; H or OH if unused. Non-standard residues stand in square brackets, D forms with d. Groups on a side chain read outwards from the residue. *: point of attachment. Butyryl(4-SO2NHCO(CH2)16Tz) = O=C(CCCCCCCCCCCCCCCCc1nnn[nH]1)NS(=O)(=O)CCCC(=O)*; Decanoyl(10-O(3-COOH-Ph)) = O=C(O)c1cccc(OCCCCCCCCCC(=O)*)c1; C20 diacid = O=C(O)CCCCCCCCCCCCCCCCCCC(=O)*; C18 diacid = O=C(O)CCCCCCCCCCCCCCCCC(=O)*; C16 diacid = O=C(O)CCCCCCCCCCCCCCC(=O)*; γGlu = O=C(O)[C@H](CCC(=O)[*:2])N[*:1]; Desaminohistidyl = O=C(CCc1c[nH]cn1)*; εLys = N[C@@H](CCCCN[*:1])C(=O)[*:2]; Trx = NC[C@H]1CC[C@H](C(=O)O)CC1; AEEA = NCCOCCOCC(=O)O; Aib = CC(C)(N)C(=O)O

Experiments:
[1] = molecular target: T1, human amylin receptor (hAmyR3) (Homo sapiens, UniProt O60896+P30988); experiment: Human amylin receptor in vitro potency assay (CRE-luciferase reporter, BHK cells); assay type: cell-based; details: for EC50: read-out: Human AmyR3 potency [EC50 (pM)]; for Ability to agonise the amylin receptor, in words: Tables 4a-4c;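 for all read-outs here: BHK cells expressing human calcitonin receptor plus RAMP3 (amylin-3 receptor) with a CRE-luciferase reporter, agonist activity read as luminescence from cAMP-driven transcription, 7-point serial dilutions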
T1 construct: host or cells: BHK cells (Hollex-1 line: human calcitonin receptor (a) + CRE-Luc), further transfected with human RAMP3
Description: Activation of hAmyR3 leads to increased cellular concentrations of cAMP. Consequently, transcription is activated by promotors containing multiple copies of the cAMP response element (CRE). It is thus possible to measure hAmyR3 activity using a CRE-luciferase reporter gene introduced into Baby Hamster Kidney (BHK) cells co-expressing the hAmyR3.
The cell line was further transfected with human receptor modifying protein 3 (RAMP3) using standard methods. This turns the human calcitonin receptor into a human amylin-3(a) receptor.
(§1) Cells were aliquoted and stored at -180° C. until use.
The plate was incubated over night at 37° C. in 5% CO2. On the day of the assay, cells were washed three times in assay buffer. Serial dilutions (7-fold dilutions, 7 concentrations pr. compound and one well containing only assay buffer) of comparator compounds and GLP-1 receptor-amylin receptor co-agonists were performed in assay buffer often starting from approximately 10-100 nM in 96-well plates and 30 µL of each concentration added to the 384-well assay plate with cells. […] The assay plate was sealed, incubated at room temperature with gentle shaking for 5 minutes followed by 30 minutes incubation without shaking while protected from light. Luminescence was detected on a luminescence plate reader e.g. a Synergy 2 (BioTek).

Sprague Dawley (SD) rats = experiment: Acute food intake in ad libitum fed rats after a single subcutaneous administration; assay type: in vivo, rat; details: for Food intake relative to vehicle (%) 0-24 hr, 10 nmol/kg / Food intake relative to vehicle (%) 24-48 hr, 10 nmol/kg: rat, single administration; for Inhibition of food intake, in words: rats, 10 nmol/kg;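 for all read-outs here: food intake monitored in the HM2 system, three rats per cage kept on a reversed light cycle, with food and water freely available after the subcutaneous dose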
Description: Sprague Dawley (SD) rats from Taconic Europe, Denmark were used for the acute food intake experiments, wherein the principles of laboratory animal care were followed.
The rats arrived at least 10-14 days before the start of the experiment to allow acclimatisation to experimental settings. During this period, the animals were handled at least 2 times. Immediately upon arrival, rats were put on a reversed light cycle (dark from 11am - 11pm) and put in the HM2 system and ID chipped. Three rats were housed in each cage. […] The rats were dosed once according to body weight with a 0.01-3 mg/kg solution administered subcutaneously (sc). The time of dosing was recorded for each group.
After dosing, the rats were returned to their home cages, where they had access to food and water. […] At the end of the experimental session, the animals were euthanised.

human GLP-1 receptor = molecular target: T2, human GLP-1 receptor (Homo sapiens, UniProt P43220); experiment: Human GLP-1 receptor in vitro potency assay (CRE-luciferase reporter, BHK cells); assay type: cell-based
T2 construct: expressed in transfected cells; host or cells: BHK (Baby Hamster Kidney) cells, clone BHK 467-12A KZ-10, stably transfected, with CRE-luciferase reporter
Procedure: It is thus possible to measure GLP-1 receptor activity using a CRE-luciferase reporter gene introduced into Baby Hamster Kidney (BHK) cells co-expressing the GLP-1 receptor.
as §1
Plates were sealed and incubated at room temperature with gentle shaking for 30 minutes while protected from light. Luminescence was detected on a luminescence plate reader e.g. a Synergy 2 (BioTek).

[2] = Pharmacokinetic studies in Beagle dogs after oral administration of SNAC-based tablets; assay type: in vivo; details: for Tmax / half-life: male, Beagle
Procedure: To be able to evaluate oral exposure following tablet dosing, tablet compositions comprising the test substance and SNAC (sodium N-(8-(2-hydroxybenzoyl)amino)caprylate) were prepared by mixing test substance with roller compacted SNAC and magnesium stearate as, e.g., described in WO 2019/149880. The amount of SNAC in the tablet composition was 100-300 mg, the amount of magnesium stearate in the tablet composition was 7.7 mg, and the target amount of each test substance in the tablet composition was 3-4 mg.
Pharmacokinetic (PK) studies in Beagle dogs were conducted to determine the exposure of the GLP-1 receptor-amylin receptor co-agonist after peroral administration.
For the pharmacokinetic studies male Beagle dogs were used, 2-7, or 1 to 5, years of age and weighing approximately 10-15, such as 10-12, kg at the start of the studies. The dogs were group housed in pens (12 hours light: 12 hours dark),and fed individually and restrictedly once daily with Royal Canin Medium Adult dog (Royal Canin Products, China Branch, or Brogaarden A/S, Denmark). Exercise and group social were permitted daily, whenever possible. The dogs were used for repeated pharmacokinetic studies with a suitable wash-out period between successive dosing. An appropriate acclimatisation period was given prior to initiation of the first pharmacokinetic study. All handling, dosing and blood sampling of the animals were performed by trained and skilled staff. Before the studies the dogs were fasted overnight and from 0 to 4 h after dosing. Besides, the dogs were restricted to water 1 hour before dosing until 4 hours after dosing, but otherwise have ad libitum access to water during the whole period.
The tablets used for the p.o. studies described herein were immediate release SNAC-based tablets dosed orally.
The tablets were administered in the following manner: 10 min prior to tablet administration the dogs may be dosed subcutaneously with approximately 3 nmol/kg of SEQ ID NO: 237, tablets were placed in the back of the mouth of the dog to prevent chewing. The mouth was then closed, and 10 mL of tap water was given by a syringe or gavage to facilitate swallowing of the tablet.
Blood was sampled at predefined time points for up till 240 hours, such as up till 10 hr, post dosing to adequately cover the full plasma concentration-time absorption profile of the GLP-1 agonist.
For each blood sampling time point approximately 0.8 mL of whole blood was collected in a 1.5 mL EDTA coated tube, and the tube was gently turned to allowing mixing of the sample with the EDTA. Blood samples (for example 0.8 mL) were collected in EDTA buffer (8 mM) and then centrifuged at 4° C. and 2000 G for 10 minutes. Plasma was pipetted into Micronic tubes on dry ice, and kept at -20° C. until analysis.
Blood samples were taken as appropriate, for example from a venflon in the cephalic vein in the front leg for the first 2 hours and then with syringe from the jugular vein for the rest of the time points (the first few drops were allowed to drain from the venflon to avoid heparin saline from the venflon in the sample).
Plasma concentration of the GLP-1 receptor-amylin receptor co-agonists were determined using LCMS. Individual plasma concentration-time profiles were analysed by a non-compartmental model in WinNonlin v. 5.0 or Phoenix v. 6.2 or 6.3 (Pharsight Inc., Mountain View, CA, USA), or other relevant software for PK analysis.
The individual plasma concentration-time profiles were analysed by non-compartmental analysis (NCA).

[3] = Table 4a, BHK hAmyR3/CRE-Luc cells, 3 hours
[4] = Table 4a, BHK cells expressing human GLP-1R, CRE-Luc, 3 hours, read-out: Human GLP-1R potency [EC50 (pM)]
[5] = dogs, oral administration (tablet)
[6] = Table 4c, further comparator compounds

T2 sequence (P43220 24-463): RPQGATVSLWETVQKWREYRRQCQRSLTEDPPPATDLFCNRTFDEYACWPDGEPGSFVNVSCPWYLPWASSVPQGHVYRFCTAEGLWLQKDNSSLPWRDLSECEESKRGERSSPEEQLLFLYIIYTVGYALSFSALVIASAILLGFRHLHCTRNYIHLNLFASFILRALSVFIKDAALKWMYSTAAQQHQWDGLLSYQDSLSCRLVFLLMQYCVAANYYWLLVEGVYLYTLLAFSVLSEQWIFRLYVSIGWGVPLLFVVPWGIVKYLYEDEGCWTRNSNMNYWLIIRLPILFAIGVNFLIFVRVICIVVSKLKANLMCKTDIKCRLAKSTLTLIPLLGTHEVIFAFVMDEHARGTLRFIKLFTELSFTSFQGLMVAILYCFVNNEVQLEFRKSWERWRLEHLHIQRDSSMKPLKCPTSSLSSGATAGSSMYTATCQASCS
T1 sequence (P30988 25-474): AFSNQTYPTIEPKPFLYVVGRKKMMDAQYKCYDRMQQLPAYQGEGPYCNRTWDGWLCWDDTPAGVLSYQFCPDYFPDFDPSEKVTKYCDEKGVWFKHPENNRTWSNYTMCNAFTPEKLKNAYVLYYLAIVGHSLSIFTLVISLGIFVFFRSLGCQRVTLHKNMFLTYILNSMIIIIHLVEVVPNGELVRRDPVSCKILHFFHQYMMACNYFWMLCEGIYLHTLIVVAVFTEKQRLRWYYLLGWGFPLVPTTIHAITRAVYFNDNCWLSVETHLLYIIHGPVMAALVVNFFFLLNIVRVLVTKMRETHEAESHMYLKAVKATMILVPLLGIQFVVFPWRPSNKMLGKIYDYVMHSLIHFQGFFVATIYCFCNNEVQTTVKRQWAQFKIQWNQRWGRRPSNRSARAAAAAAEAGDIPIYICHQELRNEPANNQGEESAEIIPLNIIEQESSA
T1 sequence (O60896 24-148): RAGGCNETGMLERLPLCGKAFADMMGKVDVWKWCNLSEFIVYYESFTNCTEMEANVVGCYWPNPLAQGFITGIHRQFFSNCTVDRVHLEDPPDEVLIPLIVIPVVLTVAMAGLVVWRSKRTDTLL

| Substance | EC50 [1, 3] [pM] | Food intake relative to vehicle (%) 0-24 hr, 10 nmol/kg (Sprague Dawley (SD) rats; Table 6a) [%] | Food intake relative to vehicle (%) 24-48 hr, 10 nmol/kg (Sprague Dawley (SD) rats; Table 6a) [%] | EC50 (human GLP-1 receptor; [4]) [pM] | further results |
| --- | --- | --- | --- | --- | --- |
| Desaminohistidyl-AEGTFTSDVSSYLEEQAAREFIAWLVRGRK([AEEA-AEEA-γGlu-Trx-C20 diacid])EASELSTAALGRLSAELHELATLPRTETGSGSP-NH2 [Compound 0035] | 16 | 76 | 95 | 16.7 |  |
| H-H[Aib]EGTFTSDVSK([AEEA-AEEA-γGlu-C20 diacid])YLEEQAAREFIAWLVRGRGGGGGEASELSTAALGRLSAELHELATLPRTETGSGSP-NH2 [Compound 0565] | 6.2 | 39 | 42 | 6.4 |  |
| H-H[Aib]EGTFTSDVSSYLEEK([AEEA-AEEA-γGlu-C16 diacid])AAREFIAWLVRGRGGGGGEASELSTAALGRLSAELHELATLPRTETGK([AEEA-AEEA-γGlu-C16 diacid])GSP-NH2 [Compound 0411] | 45.9 | 81 | 88 | 3.5 |  |
| H-H[Aib]EGTFTSDVSSYLEEQAAREFIAWLVRGK([AEEA-AEEA-γGlu-Decanoyl(10-O(3-COOH-Ph))])K([AEEA-AEEA-γGlu-Decanoyl(10-O(3-COOH-Ph))])GGGGASELSTAALGRLSAELHELATLPRTETGSGSP-NH2 [Compound 0235] | 24 |  |  | 10.4 | AUC/D [2, 5]: 3.3 kg·h/L; Cmax/D [2, 5]: 0.22 kg/L; Tmax ([2]; dog, plasma, po, dogs, oral administration (tablet), read-out: Tmax): 1 h; half-life ([2]; dog, plasma, po, dogs, oral administration (tablet), read-out: T½ (converted)): 21 h |
| H-H[Aib]EGTFTSDVSSYLEEQAAREFIAWLVRGRK(Butyryl(4-SO2NHCO(CH2)16Tz))EASELSTAALGRLSAELHELATLPRTETGSGSP-NH2 [Compound 0103] | 11.6 | 80 | 80 | 28.1 |  |
| H-H[Aib]EGTFTSDVSSYLEEQAAREFIAWLVRGRK([AEEA-AEEA-γGlu-Trx-C20 diacid])GGEASELSTAALGRLSAELHELATLPRTETGSGSP-NH2 [Compound 0512] | 10.8 |  |  | 7.6 | AUC/D ([2]; dog, in vivo, po): 3.21 kg·h/L; Cmax/D ([2]; dog, in vivo, po): 0.13 kg/L; Tmax ([2]; dog, in vivo, po, Tmax (hr)): 2 h; half-life ([2]; dog, in vivo, po, T½ (hr)): 21 h |
| H-H[Aib]EGTFTSDVSSYLEEQAAREFIAWLVRGRK([AEEA-AEEA-γGlu-Trx-C20 diacid])GGGGEASELSTAALGRPSAELHELATLPRTETGSGSP-NH2 [Comparator compound 0192, reference compound] |  |  |  |  | EC50 [1, 6]: ≥ 10000 pM; Ability to agonise the amylin receptor, in words [1]: impaired their ability to agonise (activate) the amylin receptor; also recorded: impaired amylin activity; Food intake relative to vehicle (%) 0-24 hr, 10 nmol/kg (Sprague Dawley (SD) rats; Table 6b): 71%; Food intake relative to vehicle (%) 24-48 hr, 10 nmol/kg (Sprague Dawley (SD) rats; Table 6b): 67%; Inhibition of food intake, in words (Sprague Dawley (SD) rats): significantly less than in the case of compound 0120 |
| H-H[Aib]EGTFTSDVSSYLEEQAAREFIEWLVRGRK([AEEA-AEEA-γGlu-Trx-C20 diacid])GGGGEASELSTAALGRLSAELHELATLPRTETGSGSP-NH2 [Compound 0503] | 7.7 |  |  | 6.5 | AUC/D ([2]; dog, in vivo, po): 8.72 kg·h/L; Cmax/D ([2]; dog, in vivo, po): 0.14 kg/L; Tmax ([2]; dog, in vivo, po, Tmax (hr)): 4 h; half-life ([2]; dog, in vivo, po, T½ (hr)): 41 h |
| H-H[Aib]EGTFTSDVSSYLEEQAAREIFAWLVRGRK([AEEA-AEEA-γGlu-Trx-C20 diacid])GGGGEASELSTAALGRLSAELHELATLPRTETGSGSP-NH2 [Comparator compound 0167, reference compound] |  |  |  |  | EC50 [1, 6]: 10.9 pM; Ability to agonise the amylin receptor, in words [1]: full amylin potency; Food intake relative to vehicle (%) 0-24 hr, 10 nmol/kg (Sprague Dawley (SD) rats; Table 6b): 85%; Food intake relative to vehicle (%) 24-48 hr, 10 nmol/kg (Sprague Dawley (SD) rats; Table 6b): 73%; Inhibition of food intake, in words (Sprague Dawley (SD) rats): significantly less than in the case of compound 0120; EC50 (human GLP-1 receptor; [6]): ≥ 10000 pM; Ability to agonise the GLP-1 receptor, in words (human GLP-1 receptor; Tables 4a-4c): impaired their ability to agonise (activate) the GLP-1 receptor; also recorded: impaired GLP-1 activity |
| H-H[Aib]EGTFTSDVSSYLEEQAARK([AEEA-AEEA-γGlu-C20 diacid])FIAWLVRGGASELSTAALGRLSAELHELATLPRTETGSGSP-NH2 [Compound 0580] | 9.3 |  |  | 7.4 | AUC/D ([2]; dog, in vivo, po): 12.77 kg·h/L; Cmax/D ([2]; dog, in vivo, po): 0.38 kg/L; Tmax ([2]; dog, in vivo, po, Tmax (hr)): 2 h; half-life ([2]; dog, in vivo, po, T½ (hr)): 39 h |
| H-H[Aib]EGTFTSDVSSYLEGQAAK([AEEA-AEEA-γGlu-C18 diacid])EFIAWLVRGRGGGEASELSTAALGRLSAELHELATLPRTETGSGSP-NH2 [Compound 0007] | 9.4 | 67 | 105 | 13.3 |  |
| H-H[Aib]EGTFTSDVSSYLEGQAAK([AEEA-AEEA-γGlu-C18 diacid])EFIAWLVRGRGGGGGGGGGEASELSTAALGRLSAELHELATLPRTETGSGSP-NH2 [Compound 0052] | 19.4 | 42 | 86 | 17 |  |
| H-H[Aib]EGTFTSDVSSYLEGQAAK([AEEA-AEEA-γGlu-Trx-C20 diacid])EFIAWLVRGRGGGGGGGGGEASELSTAALGRLSAELHELATLPRTETGSGSP-NH2 [Compound 0095] | 6.6 | 55 | 95 | 7.4 |  |
| H-H[Aib]EGTFTSDVSSYLEGQAAK([εLys-AEEA-AEEA-γGlu-C18 diacid])EFIAWLVRGRGGGEASELSTAALGRLSAELHELATLPRTETGSGSP-NH2 [Compound 0044] | 9.1 | 40 | 82 | 16 |  |
| H-H[Aib]EGTFTSDVSSYLEGQAAKEFIAWLVRGRK([AEEA-AEEA-γGlu-C18 diacid])GGEASELSTAALGRLSAELHELATLPRTETGSGSP-NH2 [Compound 0042] | 10.8 | 52 | 101 | 16.2 |  |
| H-H[Aib]EGTFTSDVSSYLEGQAAREFIAWLVRGRGQEPK([AEEA-AEEA-γGlu-C20 diacid])GQAPEASELSTAALGRLSAELHELATLPRTETGSGSP-NH2 [Compound 0529] | 14.1 |  |  | 6.4 | AUC/D ([2]; dog, in vivo, po): 19.71 kg·h/L; Cmax/D ([2]; dog, in vivo, po): 0.3 kg/L; Tmax ([2]; dog, in vivo, po, Tmax (hr)): 4 h; half-life ([2]; dog, in vivo, po, T½ (hr)): 68 h |
| H-H[Aib]EGTFTSDVSSYLEGQAAREFIAWLVRGRGQEPK([AEEA-AEEA-γGlu-Trx-C20 diacid])GQAPEASELSTAALGRLSAELHELATLPRTETGSGSP-NH2 [Compound 0539] | 12.1 |  |  | 5 | AUC/D ([2]; dog, in vivo, po): 8.71 kg·h/L; Cmax/D ([2]; dog, in vivo, po): 0.22 kg/L; Tmax ([2]; dog, in vivo, po, Tmax (hr)): 3 h; half-life ([2]; dog, in vivo, po, T½ (hr)): 30 h |
| H-H[Aib]EGTFTSDVSSYLEGQAAREFIAWLVRGRK([AEEA-AEEA-γGlu-C18 diacid])GGGGEASELSTAALGRLSAELHELATLPRTETGSGSP-NH2 [Compound 0151] | 9.5 | 29 | 70 | 10.4 |  |
